Results on 13 compounds are retold here after ChEMBL document CHEMBL2062378, “Antimycobacterial activity: a facile three-component [3+2]-cycloaddition for the regioselective synthesis of highly functionalised dispiropyrrolidines” (Bioorg Med Chem Lett, 2012).

The test system of this assay is Mycobacterium tuberculosis. The assay is described as follows: Antimycobacterial activity against INH-resistant Mycobacterium tuberculosis by alamar blue broth microdilution assay. The format is functional. A general note: The colour change of resazurin is a common sign of viable cells or microbes.

Values after ≈ are worked out from the molar mass of the structure shown.

The MIC90 is an inhibitory concentration at the 90% level, which refers to growth in some studies and to a panel of isolates in others. A low value points to higher susceptibility. Consider `CN1CC(c2cccc3c2OCO3)C2(Cc3ccccc3C2=O)C12C(=O)c1ccccc1C2=O` (stereo not drawn), for which the MIC90 worked out at 32.4 µM (≈ 14.6 µg/mL).

For the compound `CN1CC(c2ccccc2)C2(Cc3ccccc3C2=O)C12C(=O)c1ccccc1C2=O` (stereo not drawn), the MIC90 was 26.2 µM (≈ 10.7 µg/mL).

Regarding `CN1CC(c2ccc(Br)cc2)C2(Cc3ccccc3C2=O)C12C(=O)c1ccccc1C2=O` (stereo not drawn), the MIC90 is 21.4 µM (≈ 10.4 µg/mL).

In turn, `CN1CC(c2ccc(C(=O)O)cc2)C2(Cc3ccccc3C2=O)C12C(=O)c1ccccc1C2=O` (stereo not drawn) registered an MIC90 of 18.3 µM (≈ 8.26 µg/mL).

In the case of `CN1CC(c2ccc(C(F)(F)F)cc2)C2(Cc3ccccc3C2=O)C12C(=O)c1ccccc1C2=O` (stereo not drawn), the MIC90 came to 13.6 µM (≈ 6.48 µg/mL).

`CN1CC(c2ccc(N3CCOCC3)cc2)C2(Cc3ccccc3C2=O)C12C(=O)c1ccccc1C2=O` (stereo not drawn) gave an MIC90 of 27.2 µM (≈ 13.4 µg/mL).

`NNC(=O)c1ccncc1` [ISONIAZID] came in with an MIC90 of 11.2 µM (≈ 1.54 µg/mL).

For the compound `CN1CC(c2ccc(OC(F)(F)F)cc2)C2(Cc3ccccc3C2=O)C12C(=O)c1ccccc1C2=O` (stereo not drawn), the MIC90 amounted to 12.2 µM (≈ 6 µg/mL).

Regarding `CN1CC(c2cncc(-c3ccc(F)cc3)c2)C2(Cc3ccccc3C2=O)C12C(=O)c1ccccc1C2=O` (stereo not drawn), the MIC90 is 5.12 µM (≈ 2.57 µg/mL).

Take `COc1ccc(C2CN(C)C3(C(=O)c4ccccc4C3=O)C23Cc2ccccc2C3=O)cc1` (stereo not drawn): the MIC90 was over 6.25 µM.

`CN1CC(c2cccc([N+](=O)[O-])c2)C2(Cc3ccccc3C2=O)C12C(=O)c1ccccc1C2=O` (stereo not drawn) registered an MIC90 of 16.8 µM (≈ 7.61 µg/mL).

The compound `CN1CC(c2ccc(Cl)cc2)C2(Cc3ccccc3C2=O)C12C(=O)c1ccccc1C2=O` (stereo not drawn) came in with an MIC90 of 24.2 µM (≈ 10.7 µg/mL).

Consider `CN(C)c1ccc(C2CN(C)C3(C(=O)c4ccccc4C3=O)C23Cc2ccccc2C3=O)cc1` (stereo not drawn), for which the MIC90 is 43.3 µM (≈ 19.5 µg/mL).
